No end group written: not given here.

One experiment deals with mouse DRG neurons. Type of experiment: cell-based.
Experiment [1] deals with iPS cell-derived sensory neurons. It counts as cell-based, human.
Another experiment concerns rats. Conditions: injected in rats; cited from earlier work.
In a further experiment the test system is humans. Conditions: injection in humans; cited from earlier work.
Experiment [2] concerns E18 rat hippocampal neurons. Kind of experiment: High-throughput fluorescent voltage recording, 96-well plate (FIGS. 30-34). The following applies: 1 μM; neurons cultured for 14 days; blue light stimulus. Type of experiment: cell-based. The source says:
FIGS. 30-34 show high-throughput validation for screening. E18 rat hippocampal neurons cultured for 14 days.
The blue light stimulus is shown below.
FIG. 31 is a raster plot showing spikes from columns of wells.
Vehicle wells (even columns, green) and ML213 wells (odd columns, red) are easily distinguished. Even numbered columns are all green; odd numbered columns are all read.

The test system of another experiment is Cultured DRG neurons. Kind of experiment: Firing phenotypes of cultured DRG neurons. Type of experiment: cell-based, rodent.
Another experiment has as its system animal models. The following applies: subcutaneous injection; cited from earlier work.

As to `NC1=N[C@H](O)[C@H]2[C@H]3O[C@]4(O)O[C@@H]([C@@H](O)[C@@]2(N1)[C@@H]4O)[C@]3(O)CO` [TTX, tetrodotoxin], in the experiment on mouse DRG neurons, the after-hyperpolarization depth result is given as “decreases”, the “effect on the pain mediator composition-induced firing” value was “blocks the effect of the pain mediator composition” and the spike width entry is “increases”. For the same compound, in experiment [1], the “spiking in response to the blue stimulus” value is “almost all spiking is blocked”.

Consider “IL-6: an inflammatory cytokine found to be elevated around tumors”, for which, in the experiment on rats, the pain on injection entry is “causes local pain”.

With `Nc1ncnc2c1ncn2[C@@H]1O[C@H](COP(=O)(O)OP(=O)(O)OP(=O)(O)O)[C@@H](O)[C@H]1O` [ATP, adenosine triphosphate], the “pain sensitivity on injection” value in the experiment with humans is reported as “increased pain sensitivity”.

Regarding `Cc1cc(C)c(NC(=O)C2CC3CCC2C3)c(C)c1` (stereo not shown) [ML213], the firing rate entry in experiment [2] is reported as “dramatically reduces firing rate in all wells tested”.

For the compound `COc1cc(CNC(=O)CCCC/C=C/C(C)C)ccc1O` [capsaicin], in the experiment on Cultured DRG neurons, the “firing phenotype in response to capsaicin” value is “acute response”.

Consider TNF-a, for which the pain on injection entry in the experiment on rats is given as “cause pain”.

Take “endothelin 1 (CSCSSLMDKECVYFCHLDIIW; ends and bridges not checked; cysteine pairing not given here; UniProt P05305 53-73, looked up) [ET-1]”: the “sensitization (paw withdrawal threshold)” value in the experiment with animal models is given as “local sensitization”.

(Values after patent publication US20210138039A1, “PAIN RESPONSE MEDIATOR COMPOSITIONS AND METHODS FOR MAKING AND USING SAME” (Q-STATE BIOSCIENCES, INC., priority 2017, published 2021).)
